Measurements taken from patent publication US20240293351A1, “METHODS OF ADMINISTERING SYNTHETIC TRITERPENOIDS” (REATA PHARMACEUTICALS HOLDINGS, LLC, priority 2020, published 2024).

Tests used:
[1] = Open label dose-ranging study 402-C-0902 in type 2 diabetic patients with stage 3b-4 CKD; format: in vivo, human
[2] = BEAM (402-C-0804) phase 2b study, crystalline formulation; format: in vivo, human
[3] = Thorough QT Study in healthy volunteers; format: in vivo, human; conditions: 6 days
Method: Intensive blood pressure monitoring was employed in a separate Thorough QT Study, which was conducted in healthy volunteers.

[4] = human, in vivo, po
[5] = Crystalline 25 mg QD 52 weeks, N = 57
[6] = Crystalline 75 mg QD 52 weeks, N = 57
[7] = Crystalline 150 mg QD 52 weeks, N = 56

COC(=O)[C@]12CCC(C)(C)C[C@H]1[C@H]1C(=O)C=C3[C@@]4(C)C=C(C#N)C(=O)C(C)(C)[C@@H]4CC[C@@]3(C)[C@]1(C)CC2 [Bardoxolone methyl, methyl-2-cyano-3,12-dioxooleana-1,9-dien-28-oic acid]
AE, SOC Metab: Oedema peripheral, patients n (%) ([1]; SDD 15 mg QD 85 days, N = 50): 0 | AE, SOC Resp: Dyspnoea exertional, patients n (%) ([1]; SDD 15 mg QD 85 days, N = 50): 0 | AE, SOC Resp: Dyspnoea, patients n (%) ([1]; SDD 15 mg QD 85 days, N = 50): 0 | SAE, SOC Card: Cardiac failure congestive, patients n (%) ([1]; SDD 15 mg QD 85 days, N = 50): 0 | AE, SOC Card: Cardiac failure congestive, patients n (%) ([1]; SDD 30 mg QD 85 days, N = 14): 1 (7) | AE, SOC Card: Oedema peripheral, patients n (%) ([1]; SDD 30 mg QD 85 days, N = 14): 0 | AE, SOC Genrl: Oedema peripheral, patients n (%) ([1]; SDD 30 mg QD 85 days, N = 14): 3 (21) | AE, SOC Metab: Oedema peripheral, patients n (%) ([1]; SDD 30 mg QD 85 days, N = 14): 1 (7) | AE, SOC Resp: Dyspnoea exertional, patients n (%) ([1]; SDD 30 mg QD 85 days, N = 14): 0 | AE, SOC Resp: Dyspnoea, patients n (%) ([1]; SDD 30 mg QD 85 days, N = 14): 1 (7) | SAE, SOC Card: Cardiac failure congestive, patients n (%) ([1]; SDD 30 mg QD 85 days, N = 14): 1 (7) | AE, SOC Card: Cardiac failure congestive, patients n (%) [2, 5]: 2 (4) | AE, SOC Card: Dyspnoea paroxysmal nocturnal, patients n (%) [2, 5]: 0 | AE, SOC Card: Oedema peripheral, patients n (%) [2, 5]: 4 (7) | AE, SOC Genrl: Generalised oedema, patients n (%) [2, 5]: 2 (4) | AE, SOC Genrl: Oedema peripheral, patients n (%) [2, 5]: 11 (19) | AE, SOC Inv: Ejection fraction decreased, patients n (%) [2, 5]: 1 (2) | AE, SOC Metab: Fluid overload, patients n (%) [2, 5]: 3 (5) | AE, SOC Metab: Oedema peripheral, patients n (%) [2, 5]: 3 (5) | AE, SOC Resp: Dyspnoea exertional, patients n (%) [2, 5]: 1 (2) | AE, SOC Resp: Dyspnoea, patients n (%) [2, 5]: 2 (4) | AE, SOC Resp: Orthopnoea, patients n (%) [2, 5]: 0 | AE, SOC Resp: Pulmonary oedema, patients n (%) [2, 5]: 0 | SAE, SOC Card: Cardiac failure congestive, patients n (%) [2, 5]: 2 (4) | SAE, SOC Genrl: Oedema peripheral, patients n (%) [2, 5]: 0 | SAE, SOC Metab: Fluid overload, patients n (%) [2, 5]: 1 (2) | SAE, SOC Resp: Dyspnoea, patients n (%) [2, 5]: 0 | SAE, SOC Resp: Pulmonary oedema, patients n (%) [2, 5]: 0 | AE, SOC Card: Cardiac failure congestive, patients n (%) [2, 6]: 3 (5) | AE, SOC Card: Dyspnoea paroxysmal nocturnal, patients n (%) [2, 6]: 1 (2) | AE, SOC Card: Oedema peripheral, patients n (%) [2, 6]: 3 (5) | AE, SOC Genrl: Generalised oedema, patients n (%) [2, 6]: 0 | AE, SOC Genrl: Oedema peripheral, patients n (%) [2, 6]: 10 (18) | AE, SOC Inv: Ejection fraction decreased, patients n (%) [2, 6]: 0 | AE, SOC Metab: Fluid overload, patients n (%) [2, 6]: 2 (4) | AE, SOC Metab: Oedema peripheral, patients n (%) [2, 6]: 1 (2) | AE, SOC Resp: Dyspnoea exertional, patients n (%) [2, 6]: 0 | AE, SOC Resp: Dyspnoea, patients n (%) [2, 6]: 6 (11) | AE, SOC Resp: Orthopnoea, patients n (%) [2, 6]: 0 | AE, SOC Resp: Pulmonary oedema, patients n (%) [2, 6]: 1 (2) | SAE, SOC Card: Cardiac failure congestive, patients n (%) [2, 6]: 2 (4) | SAE, SOC Genrl: Oedema peripheral, patients n (%) [2, 6]: 0 | SAE, SOC Metab: Fluid overload, patients n (%) [2, 6]: 1 (2) | SAE, SOC Resp: Dyspnoea, patients n (%) [2, 6]: 0 | SAE, SOC Resp: Pulmonary oedema, patients n (%) [2, 6]: 1 (2) | AE, SOC Card: Cardiac failure congestive, patients n (%) [2, 7]: 3 (5) | AE, SOC Card: Dyspnoea paroxysmal nocturnal, patients n (%) [2, 7]: 0 | AE, SOC Card: Oedema peripheral, patients n (%) [2, 7]: 4 (7) | AE, SOC Genrl: Generalised oedema, patients n (%) [2, 7]: 0 | AE, SOC Genrl: Oedema peripheral, patients n (%) [2, 7]: 11 (20) | AE, SOC Inv: Ejection fraction decreased, patients n (%) [2, 7]: 0 | AE, SOC Metab: Fluid overload, patients n (%) [2, 7]: 0 | AE, SOC Metab: Oedema peripheral, patients n (%) [2, 7]: 3 (5) | AE, SOC Resp: Dyspnoea exertional, patients n (%) [2, 7]: 3 (5) | AE, SOC Resp: Dyspnoea, patients n (%) [2, 7]: 4 (7) | AE, SOC Resp: Orthopnoea, patients n (%) [2, 7]: 0 | AE, SOC Resp: Pulmonary oedema, patients n (%) [2, 7]: 0 | SAE, SOC Card: Cardiac failure congestive, patients n (%) [2, 7]: 2 (4) | SAE, SOC Genrl: Oedema peripheral, patients n (%) [2, 7]: 1 (2) | SAE, SOC Metab: Fluid overload, patients n (%) [2, 7]: 0 | SAE, SOC Resp: Dyspnoea, patients n (%) [2, 7]: 0 | SAE, SOC Resp: Pulmonary oedema, patients n (%) [2, 7]: 0 | Blood pressure ([2]; crystalline formulation, titration design): no clear dose-related trend was observed in blood pressure | Change in blood pressure ([3]; 20 mg or 80 mg once daily): did not differ from changes observed in placebo-treated patients | QTcF, placebo-corrected changes (ΔΔQTcF) ([3]; 20 or 80 mg): did not increase QTcF | Dose dependence of systemic exposure [4]: increased linearly with increasing dose from 20 to 60 mg | Food effect on total systemic exposure [4]: no appreciable food effect | Increase in peak plasma levels (Cmax) with food [4]: approximately 71% | Time of peak plasma concentrations after dose administration [4]: 1 to 6 h
